Experimental data as given in ChEMBL document CHEMBL1201862, “PubChem BioAssay data set” (2004).
Activity calls are given as the source filed them.

What was measured:
BJ [1] = assay: cytotoxicity toward BJ-TERT-LT-ST fibroblasts, dose response, cell-based, RAS-independent, luminescence (AID 1935); type: functional; settings: Homo sapiens;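 also: BJ fibroblasts immortalized with TERT plus LT and ST oncogenes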
[2] = cytotoxicity toward DRD oncogenic fibroblasts, dose response, cell-based, non-viral oncogenic, luminescence (AID 1934); type: functional; settings: Homo sapiens
[3] = inhibitors of SNCA 5'UTR-driven translation, confirmation, luminescence, H4 neuroglioblastoma cells, dose confirmation (AID 2454); type: functional, cell-based;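 also: H4 neuroglioblastoma cells carrying an alpha-synuclein 5'UTR luciferase reporter; potency for inhibition of the luciferase signal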
[4] = Luminescence Cell-Based Dose Confirmation HTS to Identify Inhibitors of 5'UTR Stem-Loop Driven Alpha-Synuclein mRNA Translation in H4 Neuroglioblastoma Cells. [Related pubchem assays: 1827 (Project Summary), 1813 (Primary HTS)]; type: functional
[5] = Luminescence Cell-Based Dose Response HTS to Identify Activators of 5'UTR Stem-Loop Driven Prion Protein mRNA Translation in H4-C Neuroglioblastoma Cells. [Related pubchem assays: 1829 (Project Summary), 1814 (Primary HTS)]; type: functional
[6] = inhibitors of SNCA 5'UTR-driven reporter translation, confirmation, H4 neuroglioma cells, luminescence (AID 1988); type: functional, cell-based
[7] = Luminescence Cell-Based Dose Retest to Confirm Activators of 5'UTR Stem-Loop Driven Alpha-Synuclein mRNA Translation in H4 Neuroglioblastoma Cells. [Related pubchem assays (depositor defined):AID1813, AID1829]; type: functional
[8] = Luminescence Cell-Based Dose Response HTS to Identify Activators of Luciferase Translation or Activity in H4-C Neuroglioblastoma Cells. [Related pubchem assays: 1829 (Project Summary), 1814 (Primary HTS)]; type: functional
[9] = cytotoxicity in HEK-293T cells, dose response, cytotoxicity control for TCR NF-kB inhibitor project, luminescence, T-cell screen hits (AID 489026); type: functional, cell-based;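 also: cells exposed to compound about 14 hours before the viability readout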
BJ [10] = assay: cells; type: functional, cell-based; settings: Homo sapiens
[11] = Luminescence Cell-Based Dose HTS Response to Identify Inhibitors of 5'UTR Stem-Loop Driven Prion Protein mRNA Translation in H4-C Neuroglioblastoma Cells. [Related pubchem assays (depositor defined):AID1814, AID1827]; type: functional
[12] = inhibitors of firefly luciferase expression or activity, dose response, H4 neuroglioma cells, luminescence (AID 1990); type: functional, cell-based
[13] = Luminescence Cell-Based Dose Response HTS to Identify Inhibitors of 5'UTR Stem-Loop Driven Prion Protein mRNA Translation in H4 Neuroglioblastoma Cells. [Related pubchem assays: 1827 (Project Summary), 1813 (Primary HTS)]; type: functional
[14] = luciferase reporter signal reduction – luminescence, H4-C neuroglioblastoma cells, dose response (AID 2458); type: functional, cell-based;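 also: H4 neuroglioblastoma cells stably carrying a luciferase reporter gene fusion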
[15] = Luminescence Cell-Based Dose Response HTS to Identify Inhibitors of Luciferase Translation or Activity in H4-C Neuroglioblastoma Cells. [Related pubchem assays: 1813 (Primary HTS), 1827 (Project Summary)]; type: functional
cells = type: functional, cell-based
[16] = molecular target: Peroxisome proliferator-activated receptor gamma/Nuclear receptor coactivator 2 (Homo sapiens, UniProt P37231); assay: (§1) TR-FRET dose response biochemical High Throughput Screening assay for agonists of the steroid receptor coactivator 2 (SRC-2) recruitment by the peroxisome proliferator-activated receptor gamma (PPAR gamma): non-selective agonists. [Related pubchem assays: 1297, 1032 ]; type: functional
Cytochrome P450 2C9 = Cytochrome P450 2C9 (Homo sapiens, UniProt P11712)
Cytochrome P450 1A2 = molecular target: T1, Cytochrome P450 1A2 (Homo sapiens, UniProt P05177);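 also: PubChem cytochrome P450 panel assay, CYP1A2 panel member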
T1 sequence (P05177 whole entry): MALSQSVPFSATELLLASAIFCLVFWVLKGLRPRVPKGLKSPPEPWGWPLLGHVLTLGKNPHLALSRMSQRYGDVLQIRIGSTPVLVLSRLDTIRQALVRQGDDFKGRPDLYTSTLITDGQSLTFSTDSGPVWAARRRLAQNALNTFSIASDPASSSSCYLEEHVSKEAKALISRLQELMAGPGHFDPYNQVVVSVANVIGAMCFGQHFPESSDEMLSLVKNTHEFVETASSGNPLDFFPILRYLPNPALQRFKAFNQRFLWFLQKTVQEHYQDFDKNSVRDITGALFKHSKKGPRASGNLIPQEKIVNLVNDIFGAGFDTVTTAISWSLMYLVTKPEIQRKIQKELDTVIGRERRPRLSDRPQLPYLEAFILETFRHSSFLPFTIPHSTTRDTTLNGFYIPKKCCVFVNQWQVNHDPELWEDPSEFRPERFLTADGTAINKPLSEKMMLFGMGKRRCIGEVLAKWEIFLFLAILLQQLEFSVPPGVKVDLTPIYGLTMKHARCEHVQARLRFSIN

[17] = molecular target: Peroxisome proliferator-activated receptor gamma/Nuclear receptor coactivator 3 (Homo sapiens, UniProt P37231); assay: as §1, with “3 (SRC-3)” for “2 (SRC-2)”, “1301 (Confirmation screen.), 1048 (Primary screen.)]” for “1297, 1032 ]”; type: functional
[18] = molecular target: Peroxisome proliferator-activated receptor gamma/Nuclear receptor coactivator 1 (Homo sapiens, UniProt P37231); assay: as §1, with “1 (SRC-1)” for “2 (SRC-2)”, “assays (depositor defined):AID1300, AID1808, AID504735, AID631]” for “assays: 1297, 1032 ]”; type: protein assay
[19] = molecular target: Intestinal-type alkaline phosphatase (Mus musculus, UniProt P24822); assay: PubChem AID 488785; type: functional
[20] = molecular target: Intestinal-type alkaline phosphatase (Homo sapiens, UniProt P09923); assay: inhibition of human intestinal alkaline phosphatase – biochemical, dose response (AID 488876); type: functional
[21] = Luminescence Cell-Based Dose Confirmation to Identify Activators of 5'UTR Stem-Loop Driven Alpha-Synuclein mRNA Translation in H4 Neuroglioblastoma Cells. [Related pubchem assays: 1829 (Project Summary), 1814 (Primary HTS)]; type: functional
[22] = Luminescence Cell-Based Dose Response HTS to Identify Activators of Luciferase Translation or Activity in H4 […] Cells. [Related pubchem assays: 1829 (Project Summary), 1814 (Primary HTS)]; type: functional
[23] = Luminescence Cell-Based Dose Response to Identify Activators of 5'UTR Stem-Loop Driven Prion Protein mRNA Translation in H4-C Neuroglioblastoma Cells. [Related pubchem assays: 1829 (Project Summary), 1814 (Primary HTS)]; type: functional
H4 = assay: Luminescence Cell-Based Dose Response HTS to Identify Activators of 5'UTR Stem-Loop Driven Prion Protein mRNA Translation in H4 Neuroglioblastoma Cells. [Related pubchem assays: 1829 (Project Summary), 1814 (Primary HTS)]; type: functional; settings: Homo sapiens
[24] = molecular target: Mitogen-activated protein kinase 10 (Homo sapiens, UniProt P53779); assay: Dose response biochemical screening assay for inhibitors of c-Jun N-Terminal Kinase 3 (JNK3). [Related pubchem assays: 746 ]
[25] = molecular target: T2, Alkaline phosphatase, tissue-nonspecific isozyme (Homo sapiens, UniProt P05186); assay: TNAP enzyme inhibition by screening hits, dose response, selectivity assay for mouse IAP inhibitor project, biochemical, human TNAP, uHTS hits (AID 488906); type: functional
T2 sequence (P05186 whole entry): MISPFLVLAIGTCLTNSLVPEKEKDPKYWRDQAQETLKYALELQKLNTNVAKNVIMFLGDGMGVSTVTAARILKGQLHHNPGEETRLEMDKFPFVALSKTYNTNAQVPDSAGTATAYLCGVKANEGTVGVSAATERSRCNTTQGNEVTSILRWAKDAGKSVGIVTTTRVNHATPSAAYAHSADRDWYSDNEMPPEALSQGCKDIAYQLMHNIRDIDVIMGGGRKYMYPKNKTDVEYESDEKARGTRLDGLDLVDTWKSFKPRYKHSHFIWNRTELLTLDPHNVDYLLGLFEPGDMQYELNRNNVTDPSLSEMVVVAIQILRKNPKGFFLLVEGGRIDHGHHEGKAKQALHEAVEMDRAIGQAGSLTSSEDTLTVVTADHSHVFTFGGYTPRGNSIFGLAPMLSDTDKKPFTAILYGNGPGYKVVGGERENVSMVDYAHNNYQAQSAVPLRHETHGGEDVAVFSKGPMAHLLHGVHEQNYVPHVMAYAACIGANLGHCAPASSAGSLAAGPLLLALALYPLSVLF

[26] = Luminescence Cell-Based Dose Response to Identify Activators of Luciferase Translation or Activity in H4-C Neuroglioblastoma Cells. [Related pubchem assays: 1829 (Project Summary), 1814 (Primary HTS)]; type: functional

Sequence of Peroxisome proliferator-activated receptor gamma/Nuclear receptor coactivator 2 (P37231 whole entry): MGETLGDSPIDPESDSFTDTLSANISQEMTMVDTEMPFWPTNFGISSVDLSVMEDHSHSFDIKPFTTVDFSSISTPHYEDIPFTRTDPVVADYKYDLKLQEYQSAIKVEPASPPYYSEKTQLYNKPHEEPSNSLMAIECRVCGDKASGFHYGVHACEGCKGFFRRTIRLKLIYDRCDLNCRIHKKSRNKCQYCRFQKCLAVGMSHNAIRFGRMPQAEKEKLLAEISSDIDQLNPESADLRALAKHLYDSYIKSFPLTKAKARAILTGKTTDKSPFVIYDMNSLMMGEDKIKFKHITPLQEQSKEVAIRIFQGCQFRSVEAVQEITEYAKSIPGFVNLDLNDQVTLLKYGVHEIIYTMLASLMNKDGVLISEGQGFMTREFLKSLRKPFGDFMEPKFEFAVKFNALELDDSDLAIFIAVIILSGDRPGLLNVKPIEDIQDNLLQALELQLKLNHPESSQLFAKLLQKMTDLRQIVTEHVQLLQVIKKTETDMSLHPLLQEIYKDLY
Sequence of Peroxisome proliferator-activated receptor gamma/Nuclear receptor coactivator 2 (Q15596 whole entry, further chain): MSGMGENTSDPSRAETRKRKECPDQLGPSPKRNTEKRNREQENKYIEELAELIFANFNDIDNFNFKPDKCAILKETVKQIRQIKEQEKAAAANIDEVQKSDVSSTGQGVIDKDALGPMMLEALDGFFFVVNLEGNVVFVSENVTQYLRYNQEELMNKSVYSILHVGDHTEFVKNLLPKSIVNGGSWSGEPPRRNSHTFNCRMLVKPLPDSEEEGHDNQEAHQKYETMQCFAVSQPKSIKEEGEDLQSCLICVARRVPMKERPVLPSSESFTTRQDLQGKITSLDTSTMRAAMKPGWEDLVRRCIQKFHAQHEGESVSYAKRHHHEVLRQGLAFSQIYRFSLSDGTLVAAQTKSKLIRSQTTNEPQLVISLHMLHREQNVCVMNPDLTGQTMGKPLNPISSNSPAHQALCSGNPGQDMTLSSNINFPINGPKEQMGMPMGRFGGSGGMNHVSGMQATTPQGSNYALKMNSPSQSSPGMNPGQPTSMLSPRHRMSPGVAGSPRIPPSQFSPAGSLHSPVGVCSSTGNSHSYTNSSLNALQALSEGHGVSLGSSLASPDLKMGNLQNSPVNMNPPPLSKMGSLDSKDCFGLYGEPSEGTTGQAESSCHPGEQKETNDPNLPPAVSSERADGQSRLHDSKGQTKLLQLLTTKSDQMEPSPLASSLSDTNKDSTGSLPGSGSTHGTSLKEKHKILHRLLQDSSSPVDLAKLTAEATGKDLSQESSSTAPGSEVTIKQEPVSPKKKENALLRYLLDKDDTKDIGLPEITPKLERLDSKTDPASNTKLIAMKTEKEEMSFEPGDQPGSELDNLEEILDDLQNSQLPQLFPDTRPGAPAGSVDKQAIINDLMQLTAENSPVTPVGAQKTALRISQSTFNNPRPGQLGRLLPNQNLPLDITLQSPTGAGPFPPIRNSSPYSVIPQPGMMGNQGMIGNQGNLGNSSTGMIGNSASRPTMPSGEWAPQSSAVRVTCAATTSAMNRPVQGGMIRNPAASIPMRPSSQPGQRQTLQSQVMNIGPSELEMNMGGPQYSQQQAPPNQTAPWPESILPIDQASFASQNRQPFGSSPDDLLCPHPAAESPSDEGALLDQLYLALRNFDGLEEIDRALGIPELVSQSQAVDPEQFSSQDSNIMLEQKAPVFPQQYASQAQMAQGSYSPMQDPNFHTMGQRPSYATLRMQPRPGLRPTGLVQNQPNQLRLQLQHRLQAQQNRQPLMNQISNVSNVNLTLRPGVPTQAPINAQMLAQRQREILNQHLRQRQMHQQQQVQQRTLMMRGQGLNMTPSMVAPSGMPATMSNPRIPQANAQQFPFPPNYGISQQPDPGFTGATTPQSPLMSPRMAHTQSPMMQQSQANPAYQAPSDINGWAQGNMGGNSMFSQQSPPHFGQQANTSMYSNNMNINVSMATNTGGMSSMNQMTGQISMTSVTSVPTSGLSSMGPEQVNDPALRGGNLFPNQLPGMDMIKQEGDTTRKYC
Sequence of Peroxisome proliferator-activated receptor gamma/Nuclear receptor coactivator 3 (P37231 whole entry): as the sequence (P37231 whole entry) above
Sequence of Peroxisome proliferator-activated receptor gamma/Nuclear receptor coactivator 3 (Q9Y6Q9 whole entry, further chain): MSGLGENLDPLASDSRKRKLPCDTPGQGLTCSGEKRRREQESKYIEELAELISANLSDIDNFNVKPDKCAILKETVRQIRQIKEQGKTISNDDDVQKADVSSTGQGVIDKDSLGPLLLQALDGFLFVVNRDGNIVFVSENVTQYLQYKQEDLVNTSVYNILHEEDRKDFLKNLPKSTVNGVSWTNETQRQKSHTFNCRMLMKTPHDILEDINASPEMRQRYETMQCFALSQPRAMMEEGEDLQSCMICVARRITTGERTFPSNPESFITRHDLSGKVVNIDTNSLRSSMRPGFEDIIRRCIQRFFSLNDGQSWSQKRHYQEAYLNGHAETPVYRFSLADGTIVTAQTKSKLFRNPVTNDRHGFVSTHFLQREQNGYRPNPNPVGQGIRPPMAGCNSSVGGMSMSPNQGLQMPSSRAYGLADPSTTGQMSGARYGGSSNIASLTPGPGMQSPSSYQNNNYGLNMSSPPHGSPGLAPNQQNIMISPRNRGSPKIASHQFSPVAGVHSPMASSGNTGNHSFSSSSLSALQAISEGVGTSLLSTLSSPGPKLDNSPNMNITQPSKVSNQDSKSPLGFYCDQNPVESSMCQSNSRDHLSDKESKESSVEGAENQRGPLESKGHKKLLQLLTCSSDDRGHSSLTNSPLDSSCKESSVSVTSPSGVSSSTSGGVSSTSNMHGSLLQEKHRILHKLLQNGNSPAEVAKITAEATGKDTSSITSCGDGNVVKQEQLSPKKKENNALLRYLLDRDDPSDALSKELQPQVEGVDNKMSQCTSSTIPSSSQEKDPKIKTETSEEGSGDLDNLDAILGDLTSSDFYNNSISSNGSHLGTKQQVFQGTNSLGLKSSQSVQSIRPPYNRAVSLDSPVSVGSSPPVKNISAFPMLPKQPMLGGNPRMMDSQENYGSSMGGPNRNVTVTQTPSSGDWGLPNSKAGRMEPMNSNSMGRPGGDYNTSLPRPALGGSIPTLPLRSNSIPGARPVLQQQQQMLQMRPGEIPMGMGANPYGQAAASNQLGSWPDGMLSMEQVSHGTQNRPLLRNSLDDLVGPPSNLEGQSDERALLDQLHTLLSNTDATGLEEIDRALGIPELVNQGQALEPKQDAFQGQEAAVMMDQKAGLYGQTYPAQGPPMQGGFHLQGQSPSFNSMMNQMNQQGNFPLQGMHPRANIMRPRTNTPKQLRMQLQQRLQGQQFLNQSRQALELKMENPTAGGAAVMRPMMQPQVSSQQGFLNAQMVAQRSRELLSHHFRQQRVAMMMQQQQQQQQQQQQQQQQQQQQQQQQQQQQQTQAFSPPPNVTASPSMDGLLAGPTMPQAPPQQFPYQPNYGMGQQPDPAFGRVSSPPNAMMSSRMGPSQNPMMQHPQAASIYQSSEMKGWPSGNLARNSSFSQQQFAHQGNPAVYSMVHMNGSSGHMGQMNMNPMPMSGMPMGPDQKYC
Sequence of Intestinal-type alkaline phosphatase (Mus musculus, UniProt P24822) (P24822 whole entry): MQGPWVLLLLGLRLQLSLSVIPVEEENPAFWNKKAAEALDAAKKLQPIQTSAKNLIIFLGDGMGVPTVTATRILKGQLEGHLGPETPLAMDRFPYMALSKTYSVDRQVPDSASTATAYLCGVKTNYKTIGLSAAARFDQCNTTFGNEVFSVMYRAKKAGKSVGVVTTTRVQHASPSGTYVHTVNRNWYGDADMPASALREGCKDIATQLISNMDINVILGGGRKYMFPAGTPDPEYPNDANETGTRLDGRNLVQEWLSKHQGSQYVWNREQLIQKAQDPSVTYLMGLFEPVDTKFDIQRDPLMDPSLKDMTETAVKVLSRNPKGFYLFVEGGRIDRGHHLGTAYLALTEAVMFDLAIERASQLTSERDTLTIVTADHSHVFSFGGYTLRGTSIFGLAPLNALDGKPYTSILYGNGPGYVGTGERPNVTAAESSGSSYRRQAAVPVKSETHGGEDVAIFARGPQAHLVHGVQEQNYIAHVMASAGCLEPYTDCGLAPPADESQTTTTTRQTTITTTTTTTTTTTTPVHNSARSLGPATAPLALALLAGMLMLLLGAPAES
Sequence of Cytochrome P450 2C9 (P11712 whole entry): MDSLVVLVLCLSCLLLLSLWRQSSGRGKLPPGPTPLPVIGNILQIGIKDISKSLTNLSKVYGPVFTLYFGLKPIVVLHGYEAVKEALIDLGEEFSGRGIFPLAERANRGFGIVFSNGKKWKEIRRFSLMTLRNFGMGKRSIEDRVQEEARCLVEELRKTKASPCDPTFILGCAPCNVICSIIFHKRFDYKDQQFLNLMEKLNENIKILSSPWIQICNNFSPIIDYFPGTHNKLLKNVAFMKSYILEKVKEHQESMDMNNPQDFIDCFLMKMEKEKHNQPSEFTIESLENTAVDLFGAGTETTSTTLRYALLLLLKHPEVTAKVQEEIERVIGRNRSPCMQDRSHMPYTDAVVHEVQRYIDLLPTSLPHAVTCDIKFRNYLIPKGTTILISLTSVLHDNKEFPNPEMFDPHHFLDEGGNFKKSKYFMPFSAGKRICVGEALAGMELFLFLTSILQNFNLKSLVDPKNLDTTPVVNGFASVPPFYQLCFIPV

With `COc1cccc(N2CCN(C(=O)c3ccc(C[S+]([O-])c4ccccc4C)o3)CC2)c1` (stereo not given) the EC50 (BJ [1]) was 1.2 µM (active), the EC50 [2] was 1.59 µM (active) and the EC50 [3] was > 12 µM (not active). The EC50 [4] was 22.5 µM (active), the EC50 [5] was 0.325 µM (inconclusive) and the EC50 [6] was < 0.1 µM (active). For the same molecule, the EC50 [7] was 22.5 µM (inconclusive), the EC50 [8] was 0.946 µM (inconclusive) and the IC50 [9] was > 80 µM (inactive). For the same molecule, the EC50 (BJ [10]) was 35 µM (active), the EC50 [11] was 0.325 µM (active) and the EC50 [12] was 7.05 µM (active). For the same molecule, the EC50 [13] was 9.12 µM (active), the EC50 [14] was 1.06 µM (active) and the EC50 [15] was 0.946 µM (active). The EC50 (cells) was 2.01 µM (active).

For `Cn1c(=O)cc(SCC(=O)NCCN2CCN(c3ccccc3F)CC2)c2cc(Cl)ccc21`, the EC50 [16] was 7.9 µM (active), the AC50 (Cytochrome P450 2C9) was “inconclusive” and the AC50 (Cytochrome P450 1A2) was 39.8 µM (inconclusive). For the same molecule, the EC50 [17] was > 79.4 µM (not active) and the EC50 [18] was 33.2 µM (inactive).

In the case of `OCCCN1c2ccccc2Nc2nnc(-c3ccccc3)cc21`, the IC50 [19] is reported as 10.3 µM (active), the IC50 [20] is reported as > 100 µM (inactive) and the EC50 [21] is reported as 0.424 µM (active). For the same molecule, the EC50 [22] was < 0.1 µM (inconclusive), the EC50 [23] was 0.549 µM (active) and the EC50 (H4) was 1.97 µM (active). The IC50 [24] was > 31 µM (not active), the IC50 [25] was > 100 µM (inactive) and the EC50 [26] was > 12 µM (not active).
